Results on ten compounds are retold here after PubChem BioAssay AID330 (DTP/NCI, 2004).

“And” between values parts separate entries of the source, which are not always exact repeats. Equal entries are not always repeated. Inconclusive results and toxic doses are left out.

For this assay, the system named is P388 leukemia ip, CD2F1 mice, survival T/C. In words: NCI In Vivo Anticancer Drug Screen. Data for tumor model P388 Leukemia (intraperitoneal) in CD2F1 (CDF1) mice. Conditions: endpoint: median survival time, higher = longer survival. In short, it runs like this: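 Mice carrying the transplanted tumor received test compound or vehicle. Survival was recorded in each group, and the value is the treated-group measurement divided by that of the vehicle-treated control group.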

The mark [1] stands for this setting: dose: 50.0 mg/kg/injection, schedule: Q01DX005 (ip), vehicle: saline with Tween-80.
[2] abbreviates: dose: 100.0 mg/kg/injection, schedule: Q01DX005 (ip), vehicle: saline with Tween-80.
[3] abbreviates: dose: 50.0 mg/kg/injection, schedule: Q01DX009 (ip), vehicle: saline.
Where [4] appears, read: dose: 100.0 mg/kg/injection, schedule: Q01DX009 (ip), vehicle: saline.

With `Cc1ncc([N+](=O)[O-])n1CCN=[N+]=[N-]`, the T/C (dose: 50.0 mg/kg/injection, schedule: Q04DX003 (ip), vehicle: saline) was 99 % of control and 100 % of control; the T/C (dose: 100.0 mg/kg/injection, schedule: Q04DX003 (ip), vehicle: saline) was 101 % of control and 107 % of control; the T/C (dose: 200.0 mg/kg/injection, schedule: Q04DX003 (ip), vehicle: saline) was 100 % of control and 112 % of control; the T/C (dose: 400.0 mg/kg/injection, schedule: Q04DX003 (ip), vehicle: saline) is 100 % of control and 107 % of control.

Consider `C=C(c1ccc(Cl)cc1)c1ccc(OC)c(OC)c1`, for which the T/C runs as follows: under setting [1], 94 % of control; under setting [2], 99 % of control; (dose: 200.0 mg/kg/injection, schedule: Q01DX005 (ip), vehicle: saline with Tween-80) 97 % of control.

Regarding `Cc1ccc(OP(=O)(Oc2ccc(C)cc2)Oc2ccc(C)cc2)cc1.Cc1ccc(OP(=O)(Oc2ccc(C)cc2)Oc2ccc(C)cc2)cc1.Cc1ccc(OP(=O)(Oc2ccc(C)cc2)Oc2ccc(C)cc2)cc1.Cc1ccc(OP(=O)(Oc2ccc(C)cc2)Oc2ccc(C)cc2)cc1.[Cu+2].[O-][Cl+3]([O-])([O-])O`, the T/C is, setting by setting: (dose: 50.0 mg/kg/injection, schedule: Q01DX001 (ip), vehicle: Klucel (hydroxypropylcellulose) (HPC)) 96 % of control; (dose: 100.0 mg/kg/injection, schedule: Q01DX001 (ip), vehicle: Klucel (hydroxypropylcellulose) (HPC)) 94 % of control; (dose: 200.0 mg/kg/injection, schedule: Q01DX001 (ip), vehicle: Klucel (hydroxypropylcellulose) (HPC)) 92 % of control.

Turning to `CCOCCC(=NC(C)(C)C)Nc1ccccc1C`, the T/C reads like this: under setting [3], 107 % of control; under setting [4], 115 % of control.

Consider `O=C(O)CCc1cccnc1`, for which the T/C (dose: 266.0 mg/kg/injection, schedule: Q01DX009 (ip), vehicle: saline with Tween-80) is 105 % of control and the T/C (dose: 400.0 mg/kg/injection, schedule: Q01DX009 (ip), vehicle: saline with Tween-80) was 115 % of control.

For `CCSC(=S)N=Nc1c(O)n(C)c2ccccc12`, the T/C reads like this: under setting [3], 93 % of control; under setting [4], 94 % of control.

As to `O=c1oc(-c2cccc(C[n+]3ccccc3)c2)nc2cc(Cl)ccc12`, the T/C (dose: 15.0 mg/kg/injection, schedule: Q01DX005 (ip), vehicle: saline) is 98 % of control; the T/C (dose: 30.0 mg/kg/injection, schedule: Q01DX005 (ip), vehicle: saline) is 100 % of control; the T/C (dose: 60.0 mg/kg/injection, schedule: Q01DX005 (ip), vehicle: saline) was 102 % of control and 110 % of control.

Take `CCOC(=O)CCN(CCN(C)C)c1cc(O)c2c(c1O)C(=O)c1ccccc1C2=O`: the T/C is 121 % of control under setting [1] and 120 % of control under setting [2].

As to `CC(C)(C)c1cc(C(C)(C)C)c(O)c(Br)c1O`, the T/C was 101 % of control (dose: 50.0 mg/kg/injection, schedule: Q01DX009 (ip), vehicle: Klucel (hydroxypropylcellulose) (HPC)); 102 % of control (dose: 100.0 mg/kg/injection, schedule: Q01DX009 (ip), vehicle: Klucel (hydroxypropylcellulose) (HPC)); 101 % of control (dose: 200.0 mg/kg/injection, schedule: Q01DX009 (ip), vehicle: Klucel (hydroxypropylcellulose) (HPC)).

In the case of `CCCCCCCCCCCCCCCC(O)CC(O)CC(O)CC1CC=CC(=O)O1` (stereo not drawn), the T/C by setting is: (dose: 4.0 mg/kg/injection, schedule: Q01DX009 (ip), vehicle: Klucel (hydroxypropylcellulose) (HPC)) 100 % of control; (dose: 8.0 mg/kg/injection, schedule: Q01DX009 (ip), vehicle: Klucel (hydroxypropylcellulose) (HPC)) 100 % of control; (dose: 16.0 mg/kg/injection, schedule: Q01DX009 (ip), vehicle: Klucel (hydroxypropylcellulose) (HPC)) 104 % of control; (dose: 32.0 mg/kg/injection, schedule: Q01DX009 (ip), vehicle: Klucel (hydroxypropylcellulose) (HPC)) 109 % of control.
